Reference: ChEMBL document CHEMBL4613209, “Quinolone hybrids and their anti-cancer activities: An overview” (Eur J Med Chem, 2019)

Key:
Format in all cases: functional, cell-based
[1] = test system: L1210; assay: Cytotoxicity against mouse L1210 cells assessed as reduction in cell viability
[2] = test system: HL-60; assay: Cytotoxicity against human HL60 cells assessed as reduction in cell viability
[3] = test system: CHO; assay: Cytotoxicity against CHO cells assessed as reduction in cell viability; conditions: Cricetulus griseus
[4] = test system: MCF7; assay: Cytotoxicity against human MCF7 cells assessed as reduction in cell viability by MTT assay
[5] = test system: SK-MEL3; assay: Cytotoxicity against human SK-MEL-3 cells assessed as reduction in cell viability by MTT assay
[6] = test system: A-431; assay: Cytotoxicity against human A431 cells assessed as reduction in cell viability by MTT assay
[7] = test system: EJ; assay: Cytotoxicity against human EJ cells assessed as reduction in cell viability by MTT assay
[8] = test system: SW480; assay: Cytotoxicity against human SW480 cells assessed as reduction in cell viability by MTT assay

How did the IC50 [1] turn out when `CCn1cc(-c2nnc(-c3cn(C4CC4)c4cc(N5CCNCC5)c(F)cc4c3=O)o2)c(=O)c2cc(F)c(N3CCNCC3)cc21` was run?
The IC50 was 0.26 to 14.5 µM.

What about the IC50 [2] of the same molecule?
The IC50 was 0.26 to 14.5 µM.

What about the IC50 [3] of the same molecule?
The IC50 was 0.26 to 14.5 µM.

For `CCn1cc(C(=O)O)c(=O)c2cc(F)c(N3CCN(C/C(=N/OC)c4ccc(Cl)s4)CC3)nc21`, which IC50 [4] is on record?
The IC50 was ≤ 20 µM.

What about the IC50 [5] of the same molecule?
Its IC50 is ≤ 20 µM.

What about the IC50 [6] of the same molecule?
Its IC50 is ≤ 20 µM.

What about the IC50 [7] of the same molecule?
Its IC50 is ≤ 20 µM.

What about the IC50 [8] of the same molecule?
Its IC50 is ≤ 20 µM.

For `O=C(O)c1cn(C2CC2)c2cc(N3CCN(C/C(=N/OCc4ccccc4)c4ccc(Cl)s4)CC3)c(F)cc2c1=O`, which IC50 [4] is on record?
The IC50 was ≤ 20 µM.

And the IC50 [5]?
Its IC50 is ≤ 20 µM.

And the IC50 [6]?
The IC50 was ≤ 20 µM.

And the IC50 [7]?
Its IC50 is ≤ 20 µM.

And the IC50 [8]?
Its IC50 is ≤ 20 µM.

For `CC1COc2c(N3CCN(C)CC3)c(F)cc3c(=O)c(-c4nn5c(-c6cn(C7CC7)c7cc(N8CCNCC8)c(F)cc7c6=O)nnc5s4)cn1c23` (stereo not given), which IC50 [1] is on record?
The IC50 was 14.2 to 23.7 µM.

What about the IC50 [2] of the same molecule?
The IC50 was 14.2 to 23.7 µM.

And the IC50 [3]?
Its IC50 is 14.2 to 23.7 µM.

`CCN1CCN(c2cc3c(cc2F)c(=O)c(-c2nnc4sc(-c5cn(C6CC6)c6cc(N7CCNCC7)c(F)cc6c5=O)nn24)cn3C2CC2)CC1` was tested. Which IC50 [1] did it give?
The IC50 was 0.12 to 5.2 µM.

And the IC50 [2]?
The IC50 was 0.12 to 5.2 µM.

What about the IC50 [3] of the same molecule?
The IC50 was 0.12 to 5.2 µM.

For `O=C(O)c1cn(C2CC2)c2cc(N3CCN(C/C(=N/OCc4ccccc4)c4cccs4)CC3)c(F)cc2c1=O`, which IC50 [4] is on record?
The IC50 was 2 to 131 µM.

And the IC50 [5]?
Its IC50 is 2 to 131 µM.

And the IC50 [6]?
Its IC50 is 2 to 131 µM.

What about the IC50 [7] of the same molecule?
Its IC50 is 2 to 131 µM.

And the IC50 [8]?
The IC50 was 2 to 131 µM.

Which results are given for `CCN1CCN(c2cc3c(cc2F)c(=O)c(-c2nnc4sc(-c5cn(CC)c6cc(N7CCN(C)CC7)c(F)cc6c5=O)nn24)cn3C2CC2)CC1`?
IC50 [1]: 0.12 to 5.2 µM; IC50 [2]: 0.12 to 5.2 µM; IC50 [3]: 0.12 to 5.2 µM

Which results are given for `CCN1CCN(c2cc3c(cc2F)c(=O)c(-c2nn4c(-c5cn(C6CC6)c6cc(N7CCN(CC)CC7)c(F)cc6c5=O)nnc4s2)cn3C2CC2)CC1`?
IC50 [1]: 0.12 to 5.2 µM; IC50 [2]: 0.12 to 5.2 µM; IC50 [3]: 0.12 to 5.2 µM

Which IC50 [1] does the source give for `O=C(N/N=C/c1ccc(F)cc1)c1cn(C2CC2)c2cc(N/N=C/c3ccc(F)cc3)c(F)cc2c1=O` here?
Its IC50 is 1.5 to 23.5 µM.

What about the IC50 [2] of the same molecule?
The IC50 was 1.5 to 23.5 µM.

What about the IC50 [3] of the same molecule?
The IC50 was 1.5 to 23.5 µM.

What does the source list for `O=C(N/N=C/c1ccccc1)c1cn(C2CC2)c2cc(N/N=C/c3ccccc3)c(F)cc2c1=O`?
IC50 [1]: 1.5 to 23.5 µM; IC50 [2]: 1.5 to 23.5 µM; IC50 [3]: 1.5 to 23.5 µM

With `CCN1CCN(c2cc3c(nc2F)c(=O)c(-c2nn4c(-c5cn(C6CC6)c6cc(N7CCN(C)CC7)c(F)cc6c5=O)nnc4s2)cn3C2CC2)CC1` as the molecule, how does the IC50 [1] read?
Its IC50 is 0.12 to 5.2 µM.

What about the IC50 [2] of the same molecule?
The IC50 was 0.12 to 5.2 µM.

And the IC50 [3]?
The IC50 was 0.12 to 5.2 µM.

How did the IC50 [1] turn out when `Cc1ccc(/C=N/NC(=O)c2cn(C3CC3)c3cc(N/N=C/c4ccc(C)cc4)c(F)cc3c2=O)cc1` was run?
Its IC50 is 1.5 to 23.5 µM.

What about the IC50 [2] of the same molecule?
The IC50 was 1.5 to 23.5 µM.

And the IC50 [3]?
The IC50 was 1.5 to 23.5 µM.

What does the source list for `C[C@H]1COc2c(N3CCN(C)CC3)c(F)cc3c(=O)c(-c4nn5c(-c6cn(C7CC7)c7cc(N8CCN(C)CC8)c(F)cc7c6=O)nnc5s4)cn1c23`?
IC50 [1]: 0.12 to 5.2 µM; IC50 [2]: 0.12 to 5.2 µM; IC50 [3]: 0.12 to 5.2 µM

Which results are given for `CCN1CCN(c2cc3c(cc2F)c(=O)c(-c2nnc4sc(-c5cn(CC)c6cc(N7CCNCC7)c(F)cc6c5=O)nn24)cn3C2CC2)CC1`?
IC50 [1]: 0.12 to 5.2 µM; IC50 [2]: 0.12 to 5.2 µM; IC50 [3]: 0.12 to 5.2 µM

What does the source list for `O=C(N/N=C/c1ccc2c(c1)OCO2)c1cn(C2CC2)c2cc(N/N=C/c3ccc4c(c3)OCO4)c(F)cc2c1=O`?
IC50 [1]: 1.5 to 23.5 µM; IC50 [2]: 1.5 to 23.5 µM; IC50 [3]: 1.5 to 23.5 µM

Which results are given for `COc1ccc(/C=N/NC(=O)c2cn(C3CC3)c3cc(N/N=C/c4ccc(OC)cc4)c(F)cc3c2=O)cc1`?
IC50 [1]: 1.5 to 23.5 µM; IC50 [2]: 1.5 to 23.5 µM; IC50 [3]: 1.5 to 23.5 µM

`CN1CCN(c2cc3c(cc2F)c(=O)c(-c2nn4c(-c5cn(C6CC6)c6cc(N7CCNCC7)c(F)cc6c5=O)nnc4s2)cn3C2CC2)CC1` was tested. Which IC50 [1] did it give?
The IC50 was 0.12 to 5.2 µM.

And the IC50 [2]?
The IC50 was 0.12 to 5.2 µM.

And the IC50 [3]?
The IC50 was 0.12 to 5.2 µM.

Which IC50 [1] does the source give for `CCN1CCN(c2cc3c(cc2F)c(=O)c(-c2nnc4sc(-c5cn6c7c(c(N8CCN(C)CC8)c(F)cc7c5=O)OCC6C)nn24)cn3C2CC2)CC1` (stereo not given) here?
The IC50 was 14.2 to 23.7 µM.

And the IC50 [2]?
The IC50 was 14.2 to 23.7 µM.

And the IC50 [3]?
The IC50 was 14.2 to 23.7 µM.

For `CCN1CCN(c2cc3c(cc2F)c(=O)c(-c2nn4c(-c5cn(C6CC6)c6cc(N7CCN(C)CC7)c(F)cc6c5=O)nnc4s2)nn3C2CC2)CC1`, which IC50 [1] is on record?
The IC50 was 0.12 to 5.2 µM.

What about the IC50 [2] of the same molecule?
The IC50 was 0.12 to 5.2 µM.

What about the IC50 [3] of the same molecule?
Its IC50 is 0.12 to 5.2 µM.

For `CN1CCN(c2cc3c(nc2F)c(=O)c(-c2nnc4sc(-c5cn(C6CC6)c6cc(N7CCNCC7)c(F)cc6c5=O)nn24)cn3C2CC2)CC1`, which IC50 [1] is on record?
Its IC50 is 0.12 to 5.2 µM.

What about the IC50 [2] of the same molecule?
The IC50 was 0.12 to 5.2 µM.

What about the IC50 [3] of the same molecule?
Its IC50 is 0.12 to 5.2 µM.

How did the IC50 [1] turn out when `O=c1c(-c2nn3c(-c4cn(C5CC5)c5cc(N6CCNCC6)c(F)cc5c4=O)nnc3s2)cn(C2CC2)c2cc(N3CCNCC3)c(F)cc12` was run?
Its IC50 is 0.12 to 5.2 µM.

What about the IC50 [2] of the same molecule?
Its IC50 is 0.12 to 5.2 µM.

And the IC50 [3]?
Its IC50 is 0.12 to 5.2 µM.

With `CCN1CCN(c2cc3c(cc2F)c(=O)c(-c2nnc4sc(-c5cn6c7c(c(N8CCN(C)CC8)c(F)cc7c5=O)OC[C@@H]6C)nn24)cn3C2CC2)CC1` as the molecule, how does the IC50 [1] read?
Its IC50 is 0.12 to 5.2 µM.

What about the IC50 [2] of the same molecule?
Its IC50 is 0.12 to 5.2 µM.

And the IC50 [3]?
Its IC50 is 0.12 to 5.2 µM.

`CCN1CCN(c2cc3c(cc2F)c(=O)c(-c2nnc4sc(-c5cn(C6CC6)c6cc(N7CCN(C)CC7)c(F)cc6c5=O)nn24)cn3C2CC2)CC1` was tested. Which IC50 [1] did it give?
The IC50 was 0.12 to 5.2 µM.

What about the IC50 [2] of the same molecule?
Its IC50 is 0.12 to 5.2 µM.

What about the IC50 [3] of the same molecule?
The IC50 was 0.12 to 5.2 µM.
